Some test systems named below: 786-0 renal; CAKI-1 renal; HCT-15 colon; HOP-92 NSCLC; HS 578T breast; MDA-N; NCI-H226 lung; OVCAR-4 ovarian; OVCAR-8 ovarian; PC-3 prostate; RXF 393 renal; SF-268 CNS; SNB-75 CNS; SR leukemia; SW-620 colon; UACC-257 melanoma; UO-31 renal; NCI-H522 lung; SN12C renal.
What all share (experiment): NCI anticancer screen, dose series, 48 h

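96-well plates; 48 h exposure; 5 concentrations. Endpoints by linear interpolation between flanking doses. Not reached: highest tested concentration assigned. TGI: total growth inhibition.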

In the case of `NCCc1ccc2c(c1)C(=O)c1c(O)ccc(O)c1C2=O`, the TGI in the assay with 786-0 renal is 8.59 µM; in the assay on CAKI-1 renal it was more than 84.3 µM; in the assay with HCT-15 colon, more than 100 µM; in the assay on HOP-92 NSCLC, more than 100 µM; in the assay with HS 578T breast, more than 100 µM; in the assay with MDA-N it was more than 100 µM. In addition, the TGI in the assay on NCI-H226 lung is more than 100 µM; with OVCAR-4 ovarian, more than 100 µM; in the assay on OVCAR-8 ovarian, 9.19 µM; with PC-3 prostate, 26.1 µM; in the assay on RXF 393 renal, more than 100 µM; in the assay with SF-268 CNS it was 25.3 µM. The TGI in the assay with SNB-75 CNS was 42.3 µM; in the assay with SR leukemia it was more than 100 µM; in the assay with SW-620 colon, more than 100 µM; with UACC-257 melanoma, more than 100 µM; in the assay on UO-31 renal it was 25.7 µM.
For the molecule `CC1CC(NN(C)C)C2(C(N)=O)C(N)=NC(=O)C12C#N` (centres undefined), the TGI in the assay with 786-0 renal, with CAKI-1 renal, with HCT-15 colon, in the assay with HOP-92 NSCLC, in the assay with HS 578T breast and in the assay with MDA-N was more than 100 µM each time. Besides, the TGI in the assay with NCI-H226 lung, with NCI-H522 lung, in the assay on OVCAR-8 ovarian, with PC-3 prostate, in the assay with RXF 393 renal and in the assay on SF-268 CNS was more than 100 µM in each case. The TGI in the assay on SN12C renal, in the assay on SNB-75 CNS, in the assay with SR leukemia, with SW-620 colon, in the assay with UACC-257 melanoma and in the assay on UO-31 renal was more than 100 µM throughout.
As to `O=C1/C(=C\c2c(-c3ccccc3)nn(-c3ccccc3)c2O)C(c2ccccc2)=NN1c1ccccc1`, the TGI in the assay with 786-0 renal, in the assay with CAKI-1 renal, in the assay on HCT-15 colon, in the assay on HOP-92 NSCLC, in the assay with HS 578T breast and in the assay on MDA-N was more than 100 µM each time. Besides, the TGI in the assay on NCI-H226 lung, with OVCAR-4 ovarian, with OVCAR-8 ovarian, in the assay on PC-3 prostate, with RXF 393 renal and with SF-268 CNS was more than 100 µM in each case. Further, the TGI in the assay with SN12C renal is more than 100 µM; with SNB-75 CNS it was more than 100 µM; in the assay with SR leukemia, 61.4 µM; in the assay with SW-620 colon, more than 100 µM; in the assay on UACC-257 melanoma, more than 100 µM; with UO-31 renal, more than 100 µM.
Take `COC(=O)CCc1ccc2c(c1)CC1(C2)Cc2ccc3c(c2C1)CCC3` (centres undefined): the TGI in the assay with 786-0 renal, with HCT-15 colon, in the assay on HOP-92 NSCLC, in the assay on HS 578T breast, in the assay on MDA-N and in the assay on NCI-H226 lung was more than 100 µM throughout. Further, the TGI in the assay with NCI-H522 lung, in the assay with OVCAR-4 ovarian, in the assay with OVCAR-8 ovarian, with PC-3 prostate, in the assay with RXF 393 renal and in the assay with SF-268 CNS was more than 100 µM each time. The TGI in the assay on SN12C renal was more than 100 µM; with SNB-75 CNS, more than 100 µM; in the assay with SR leukemia, more than 100 µM; in the assay on SW-620 colon it was more than 100 µM; in the assay on UACC-257 melanoma, more than 100 µM; in the assay on UO-31 renal it was 67.5 µM.
Take `CN(NC(=O)c1cccs1)C1=NCCN1`: the TGI in the assay on 786-0 renal, in the assay with HCT-15 colon, in the assay with HOP-92 NSCLC, with HS 578T breast, in the assay with MDA-N and in the assay with NCI-H226 lung was more than 100 µM throughout. Also, the TGI with NCI-H522 lung, in the assay on OVCAR-4 ovarian, in the assay on OVCAR-8 ovarian, in the assay with PC-3 prostate, in the assay on RXF 393 renal and in the assay on SF-268 CNS was more than 100 µM throughout. In addition, the TGI in the assay with SNB-75 CNS, with SR leukemia, in the assay with SW-620 colon, with UACC-257 melanoma and with UO-31 renal was more than 100 µM in each case.
On to `COc1ccc(Nc2nc3ccccc3nc2C(=O)O)cc1`, for which the TGI in the assay on 786-0 renal is more than 100 µM; in the assay on CAKI-1 renal, more than 100 µM; in the assay on HCT-15 colon, more than 100 µM; with HOP-92 NSCLC it was more than 100 µM; in the assay with HS 578T breast, 85.9 µM; in the assay with MDA-N, more than 100 µM. In addition, the TGI with NCI-H522 lung, in the assay with OVCAR-4 ovarian, in the assay with OVCAR-8 ovarian, with PC-3 prostate, in the assay on RXF 393 renal and in the assay with SF-268 CNS was more than 100 µM each time. Also, the TGI with SN12C renal, with SNB-75 CNS, in the assay with SR leukemia, in the assay on SW-620 colon, in the assay with UACC-257 melanoma and with UO-31 renal was more than 100 µM throughout.
For the molecule `CC1(C)C(=O)C2(C#N)CCC1C2` (centres undefined), the TGI in the assay on 786-0 renal, in the assay on CAKI-1 renal, with HCT-15 colon, in the assay on HOP-92 NSCLC, with HS 578T breast and with MDA-N was more than 100 µM throughout. The TGI in the assay with NCI-H226 lung, in the assay on OVCAR-4 ovarian, in the assay on OVCAR-8 ovarian, in the assay with PC-3 prostate, with RXF 393 renal and with SF-268 CNS was more than 100 µM in each case. Besides, the TGI in the assay with SN12C renal, in the assay with SNB-75 CNS, in the assay on SR leukemia, in the assay with SW-620 colon, with UACC-257 melanoma and in the assay on UO-31 renal was more than 100 µM throughout.

Source of the values: PubChem BioAssay (NCI).
